According to EP2951180B1, “2,6,7,8 SUBSTITUTED PURINES AS HDM2 INHIBITORS” (Merck Sharp & Dohme Corp., priority 2013, dated 2014):

target: T1, HDM2 (Homo sapiens, UniProt Q00987); test: FRET assay (HDM2 inhibition; method not described in this part); assay type: binding; settings: Table 1
T1 construct: Thioredoxin (N); made in house; host or cells: E. coli strain BL21(DE3)Rosetta
T1 sequence (Q00987 17-125): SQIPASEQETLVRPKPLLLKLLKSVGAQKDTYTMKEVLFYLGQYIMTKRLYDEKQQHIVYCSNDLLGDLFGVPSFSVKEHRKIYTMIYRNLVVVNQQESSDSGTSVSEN

Row | SMILES | IC50
1 | CCCc1ccnc(-c2nc3nc(C(=O)O)nc(N[C@H](C)C4CCC4)c3n2Cc2ccc(C(F)(F)F)cc2)c1 [Example 1.68, 6-{[(1R)-1-cyclobutylethyl]amino}-8-(4-propylpyridin-2-yl)-7-[4-(trifluoromethyl)benzyl]-7H-purine-2-carboxylic acid] | 5.62 nM
2 | CCc1ccnc(-c2nc3nc(C(=O)O)nc(N[C@H](C)C4CCC4)c3n2Cc2ccc(C(F)(F)F)cc2)c1 [Example 1.69, 6-{[(1R)-1-cyclobutylethyl]amino}-8-(4-ethylpyridin-2-yl)-7-[4-(trifluoromethyl)benzyl]-7H-purine-2-carboxylic acid] | 42.7 nM
3 | CC(C)c1cccc(-c2nc3nc(C(=O)O)nc(N[C@H](C)C4CCC4)c3n2Cc2ccc(C(F)(F)F)cc2)n1 [Example 1.70, 6-{[(1R)-1-cyclobutylethyl]amino}-8-[6-(1-methylethyl)pyridin-2-yl]-7-[4-(trifluoromethyl)benzyl]-7H-purine-2-carboxylic acid] | 46.9 nM
4 | CC(C)c1ccnc(-c2nc3nc(C(=O)O)nc(N[C@H](C)C4CCC4)c3n2Cc2ccc(OC(F)(F)F)c(F)c2)c1 [Example 1.71, 6-{[(1R)-1-cyclobutylethyl]amino}-7-[3-fluoro-4-(trifluoromethoxy)benzyl]-8-[4-(1-methylethyl)pyridin-2-yl]-7H-purine-2-carboxylic acid] | 9.51 nM
5 | CC(C)c1ccnc(-c2nc3nc(C(=O)O)nc(N[C@H](C)C4CCC4)c3n2Cc2ccc(OC(F)(F)F)cc2)c1 [Example 1.72, 6-{[(1R)-1-cyclobutylethyl]amino}-8-[4-(1-methylethyl)pyridin-2-yl]-7-[4-(trifluoromethoxy)benzyl]-7H-purine-2-carboxylic acid] | 12.3 nM
6 | C[C@@H](Nc1nc(C(=O)O)nc2nc(-c3nccc4ccccc34)n(Cc3ccc(C(F)(F)F)cc3)c12)C1CCC1 [Example 1.73, 6-{[(1R)-1-cyclobutylethyl]amino}-8-isoquinolin-1-yl-7-[4-(trifluoromethyl)benzyl]-7H-purine-2-carboxylic acid] | 27.3 nM
7 | COc1ccnc(-c2nc3nc(C(=O)O)nc(N[C@H](C)C4CCC4)c3n2Cc2ccc(C(F)(F)F)cc2)c1C [Example 1.74, 6-{[(1R)-1-cyclobutylethyl]amino}-8-(4-methoxy-3-methylpyridin-2-yl)-7-[4-(trifluoromethyl)benzyl]-7H-purine-2-carboxylic acid] | 72.5 nM
8 | C[C@@H](Nc1nc(C(=O)O)nc2nc(-c3ncccc3-c3ccccc3)n(Cc3ccc(C(F)(F)F)cc3)c12)C1CCC1 [Example 1.75, 6-{[(1R)-1-cyclobutylethyl]amino}-8-(3-phenylpyridin-2-yl)-7-[4-(trifluoromethyl)benzyl]-7H-purine-2-carboxylic acid] | 6.12 nM
9 | C[C@@H](Nc1nc(C(=O)O)nc2nc(-c3cc(C(C)(C)C)ccn3)n(Cc3ccc(C(F)(F)F)c(F)c3)c12)C1CCC1 [Example 1.76, 8-(4-tert-butylpyridin-2-yl)-6-{[(1R)-1-cyclobutylethyl]amino}-7-[3-fluoro-4-(trifluoromethyl)benzyl]-7H-purine-2-carboxylic acid] | 8.49 nM
10 | C[C@@H](Nc1nc(C(=O)O)nc2nc(-c3cc(C4CC4)ccn3)n(Cc3ccc(C(F)(F)F)c(F)c3)c12)C1CCC1 [Example 1.77, 6-{[(1R)-1-cyclobutylethyl]amino}-8-(4-cyclopropylpyridin-2-yl)-7-[3-fluoro-4-(trifluoromethyl)benzyl]-7H-purine-2-carboxylic acid] | 20 nM
11 | C[C@@H](Nc1nc(C(=O)O)nc2nc(-c3cc(C4CCC4)ccn3)n(Cc3ccc(C(F)(F)F)c(F)c3)c12)C1CCC1 [Example 1.78, 6-{[(1R)-1-cyclobutylethyl]amino}-8-(4-cyclobutylpyridin-2-yl)-7-[3-fluoro-4-(trifluoromethyl)benzyl]-7H-purine-2-carboxylic acid] | 9.25 nM
12 | CCc1ccnc(-c2nc3nc(C(=O)O)nc(N[C@H](C)C4CCC4)c3n2Cc2ccc(C(F)(F)F)c(F)c2)c1 [Example 1.79, 6-{[(1R)-1-cyclobutylethyl]amino}-8-(4-ethylpyridin-2-yl)-7-[3-fluoro-4-(trifluoromethyl)benzyl]-7H-purine-2-carboxylic acid] | 10.2 nM
13 | CCCc1ccnc(-c2nc3nc(C(=O)O)nc(N[C@H](C)C4CCC4)c3n2Cc2ccc(C(F)(F)F)c(F)c2)c1 [Example 1.80, 6-{[(1R)-1-cyclobutylethyl]amino}-7-[3-fluoro-4-(trifluoromethyl)benzyl]-8-(4-propylpyridin-2-yl)-7H-purine-2-carboxylic acid] | 7.45 nM
14 | CC(C)c1cncc(-c2nc3nc(C(=O)O)nc(N[C@H](C)C4CCC4)c3n2Cc2ccc(C(F)(F)F)cc2)c1 [Example 1.81, 6-{[(1R)-1-cyclobutylethyl]amino}-8-[5-(1-methylethyl)pyridin-3-yl]-7-[4-(trifluoromethyl)benzyl]-7H-purine-2-carboxylic acid] | 74.4 nM
15 | Cc1ccnc(-c2nc3nc(C(=O)O)nc(N[C@H](C)C4CCC4)c3n2Cc2ccc(C(F)(F)F)cc2)c1F [Example 1.82, 6-{[(1R)-1-cyclobutylethyl]amino}-8-(3-fluoro-4-methylpyridin-2-yl)-7-[4-(trifluoromethyl)benzyl]-7H-purine-2-carboxylic acid] | 49 nM
16 | CC(C)c1ccc(OC(F)(F)F)c(-c2nc3nc(C(=O)O)nc(N[C@H](C)C4CCC4)c3n2Cc2ccc(OC(F)(F)F)c(F)c2)c1 [Example 1.83, 6-{[(1R)-1-cyclobutylethyl]amino}-7-[3-fluoro-4-(trifluoromethoxy)benzyl]-8-[5-(1-methylethyl)-2-(trifluoromethoxy)phenyl]-7H-purine-2-carboxylic acid] | 23.2 nM
17 | Cc1ccc(OC(F)(F)F)c(-c2nc3nc(C(=O)O)nc(N[C@H](C)C4CCC4)c3n2Cc2ccc(C(F)(F)F)cc2)c1 [Example 1.84, 6-{[(1R)-1-cyclobutylethyl]amino}-8-[5-methyl-2-(trifluoromethoxy)phenyl]-7-[4-(trifluoromethyl)benzyl]-7H-purine-2-carboxylic acid] | 9.68 nM
18 | CC(C)Cc1ccnc(-c2nc3nc(C(=O)O)nc(N[C@H](C)C4CCC4)c3n2Cc2ccc(C(F)(F)F)cc2)c1 [Example 1.85, 6-{[(1R)-1-cyclobutylethyl]amino}-8-[4-(2-methylpropyl)pyridin-2-yl]-7-[4-(trifluoromethyl)benzyl]-7H-purine-2-carboxylic acid] | 9.69 nM
19 | Cc1cnc(-c2nc3nc(C(=O)O)nc(N[C@H](C)C4CCC4)c3n2Cc2ccc(C(F)(F)F)cc2)cc1C(C)C [Example 1.86, 6-{[(1R)-1-cyclobutylethyl]amino}-8-[5-methyl-4-(1-methylethyl)pyridin-2-yl]-7-[4-(trifluoromethyl)benzyl]-7H-purine-2-carboxylic acid] | 24.8 nM
20 | Cc1c(C(C)C)ccnc1-c1nc2nc(C(=O)O)nc(N[C@H](C)C3CCC3)c2n1Cc1ccc(C(F)(F)F)cc1 [Example 1.87, 6-{[(1R)-1-cyclobutylethyl]amino}-8-[3-methyl-4-(1-methylethyl)pyridin-2-yl]-7-[4-(trifluoromethyl)benzyl]-7H-purine-2-carboxylic acid] | 59 nM
21 | C[C@@H](Nc1nc(C(=O)O)nc2nc(-c3cc(CCC(C)(C)C)ccn3)n(Cc3ccc(C(F)(F)F)cc3)c12)C1CCC1 [Example 1.88, 6-{[(1R)-1-cyclobutylethyl]amino}-8-[4-(3,3-dimethylbutyl)pyridin-2-yl]-7-[4-(trifluoromethyl)benzyl]-7H-purine-2-carboxylic acid] | 19.6 nM
22 | C[C@@H](Nc1nc(C(=O)O)nc2nc(-c3cc(CCC4CC4)ccn3)n(Cc3ccc(C(F)(F)F)cc3)c12)C1CCC1 [Example 1.89, 6-{[(1R)-1-cyclobutylethyl]amino}-8-[4-(2-cyclopropylethyl)pyridin-2-yl]-7-[4-(trifluoromethyl)benzyl]-7H-purine-2-carboxylic acid] | 8.67 nM
23 | Cc1cnc(-c2nc3nc(C(=O)O)nc(N[C@H](C)C4CCC4)c3n2Cc2ccc(OC(F)(F)F)c(F)c2)cc1C(C)C [Example 1.90, 6-{[(1R)-1-cyclobutylethyl]amino}-7-[3-fluoro-4-(trifluoromethoxy)benzyl]-8-[5-methyl-4-(1-methylethyl)pyridin-2-yl]-7H-purine-2-carboxylic acid] | 24.7 nM
24 | Cc1c(C(C)C)ccnc1-c1nc2nc(C(=O)O)nc(N[C@H](C)C3CCC3)c2n1Cc1ccc(OC(F)(F)F)c(F)c1 [Example 1.91, 6-{[(1R)-1-cyclobutylethyl]amino}-7-[3-fluoro-4-(trifluoromethoxy)benzyl]-8-[3-methyl-4-(1-methylethyl)pyridin-2-yl]-7H-purine-2-carboxylic acid] | 22.3 nM
25 | Cc1cnc(-c2nc3nc(C(=O)O)nc(N[C@H](C)C4CCC4)c3n2Cc2ccc(C(F)(F)F)c(F)c2)cc1C(C)C [Example 1.92, 6-{[(1R)-1-cyclobutylethyl]amino}-7-[3-fluoro-4-(trifluoromethyl)benzyl]-8-[5-methyl-4-(1-methylethyl)pyridin-2-yl]-7H-purine-2-carboxylic acid] | 15.9 nM
26 | Cc1cc(C(C)C)cc(-c2nc3nc(C(=O)O)nc(N[C@H](C)C4CCC4)c3n2Cc2ccc(C(F)(F)F)cc2)n1 [Example 1.93, 6-{[(1R)-1-cyclobutylethyl]amino}-8-[6-methyl-4-(1-methylethyl)pyridin-2-yl]-7-[4-(trifluoromethyl)benzyl]-7H-purine-2-carboxylic acid] | 19.1 nM
27 | Cc1cc(-c2nc3nc(C(=O)O)nc(N[C@H](C)C4CCC4)c3n2Cc2ccc(C(F)(F)F)cc2)n(C)n1 [Example 1.94, 6-{[(1R)-1-cyclobutylethyl]amino}-8-(1,3-dimethyl-1H-pyrazol-5-yl)-7-[4-(trifluoromethyl)benzyl]-7H-purine-2-carboxylic acid] | 173 nM
28 | Cc1c(-c2nc3nc(C(=O)O)nc(N[C@H](C)C4CCC4)c3n2Cc2ccc(C(F)(F)F)cc2)cnn1C [Example 1.95, 6-{[(1R)-1-cyclobutylethyl]amino}-8-(1,5-dimethyl-1H-pyrazol-4-yl)-7-[4-(trifluoromethyl)benzyl]-7H-purine-2-carboxylic acid] | 138 nM
